Biological target: T1, hDGAT1 (Homo sapiens, UniProt O75907)
T1 sequence (O75907 1-488): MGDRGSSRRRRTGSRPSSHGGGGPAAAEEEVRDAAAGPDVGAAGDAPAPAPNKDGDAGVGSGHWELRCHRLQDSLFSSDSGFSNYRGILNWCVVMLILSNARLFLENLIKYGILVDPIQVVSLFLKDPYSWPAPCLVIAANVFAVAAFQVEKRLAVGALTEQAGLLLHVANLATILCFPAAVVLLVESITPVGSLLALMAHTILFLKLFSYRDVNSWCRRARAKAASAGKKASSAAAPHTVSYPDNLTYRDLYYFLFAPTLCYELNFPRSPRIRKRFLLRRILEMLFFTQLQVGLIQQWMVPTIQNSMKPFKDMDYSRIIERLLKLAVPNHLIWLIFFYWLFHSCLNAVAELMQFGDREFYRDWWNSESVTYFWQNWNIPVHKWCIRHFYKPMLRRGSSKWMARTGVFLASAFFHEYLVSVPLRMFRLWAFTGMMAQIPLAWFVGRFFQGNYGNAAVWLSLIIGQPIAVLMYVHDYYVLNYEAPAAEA
Assay: In-vitro DGAT1 assay (14C oleoyl CoA, hDGAT1 microsomes from Sf9 cells)
Conditions: for inhibition at 1 µM: read-out: % Inhibition of hDGAT1; for % Inhibition of hDGAT1: at 1 μM

SMILES	inhibition at 1 µM [%]	% Inhibition of hDGAT1
COc1ccc(NC(=S)Nc2ccc(-c3ccc4c(c3)CN([C@H](C(=O)O)C(C)C)C4=O)cc2)cc1 [Example 261, (S)-2-(5-(4-(3-(4-Methoxyphenyl)thioureido)phenyl)-1-oxoisoindolin-2-yl)-3-methylbutanoic acid]	10 to 50	–
Cc1ccc(NC(=S)Nc2ccc(-c3ccc4c(c3)CN([C@H](C(=O)O)C(C)C)C4=O)cc2)cc1 [Example 275, (S)-3-Methyl-2-(1-oxo-5-(4-(3-p-tolylthioureido)phenyl)isoindolin-2-yl)butanoic acid]	10 to 50	–
O=C(Nc1ccc(-c2ccc3c(c2)C(=O)N(C2CCC(C(=O)O)CC2)C3)cc1)c1ccc(-c2ccccc2)cc1 (stereo not drawn) [Example 557, (1r,4r)-4-(6-(4-([1,1′-Biphenyl]-4-ylcarboxamido)phenyl)-1-oxoisoindolin-2-yl)cyclohexanecarboxylic acid]	–	++ (>50% Inhibition)
O=C(Nc1ccc(-c2ccc3c(c2)C(=O)N(C2CCCC(C(=O)O)C2)C3)cc1)c1ccc(-c2ccccc2)cc1 (stereo not drawn) [Example 545, 3-(6-(4-([1,1′-Biphenyl]-4-ylcarboxamido)phenyl)-1-oxoisoindolin-2-yl)cyclo hexane carboxylic acid]	–	++ (>50% Inhibition)
Cc1cc(NC(=O)c2ccc(-c3ccccc3)cc2)ccc1-c1ccc2c(c1)C(=O)N([C@H](C(=O)O)C(C)C)C2 [Example 470, (S)-2-(6-(4-Biphenyl-4-ylcarboxamido-2-methylphenyl)-1-oxoisoindolin-2-yl)-3-methylbutanoic acid]	–	++ (>50% Inhibition)
O=C(Nc1ccc(-c2ccc3c(c2)C(=O)N([C@@H]2CCC[C@@H]2C(=O)O)C3)cc1)c1ccc(Cl)cc1 [Example 596, (1S,2R)-2-(6-(4-(4-Chlorobenzamido)phenyl)-1-oxoisoindolin-2-yl)cyclopentane carboxylic acid]	> 50	–
CCCCCCCc1ccc(C(=O)Nc2ccc(-c3ccc4c(c3)C(=O)N([C@H](C(=O)O)C(C)C)C4)cc2)cc1 [Example 184, (S)-2-(6-(4-(4-Heptylbenzamido)phenyl)-1-oxoisoindolin-2-yl)-3-methylbutanoic acid]	> 50	–
COc1ccc(S(=O)(=O)Nc2ccc(-c3ccc4c(c3)C(=O)N([C@H](C(=O)O)C(C)C)C4)cc2)cc1OC [Example 86, (S)-2-(6-(4-(3,4-Dimethoxyphenylsulfonamido)phenyl)-1-oxoisoindolin-2-yl)-3-methylbutanoic acid]	10 to 50	–
CC(C)(C(=O)O)N1Cc2ccc(-c3ccc(NC(=O)c4ccc(-c5ccccc5)cc4)cc3)cc2C1=O [Example 517, 2-(6-(4-([1,1′-Biphenyl]-4-ylcarboxamido)phenyl)-1-oxoisoindolin-2-yl)-2-methyl propanoic acid]	–	++ (>50% Inhibition)
O=C(Nc1ccc(-c2ccc3c(c2)C(=O)N(C2(C(=O)O)CCC2)C3)cc1)c1ccc(-c2ccccc2)cc1 [Example 576, 1-(6-(4-([1,1′-Biphenyl]-4-ylcarboxamido)phenyl)-1-oxoisoindolin-2-yl)cyclo butanecarboxylic acid]	–	++ (>50% Inhibition)
CC(C)(C(=O)O)N1Cc2ccc(-c3ccc(NC(=O)c4ccc(OC(F)(F)F)cc4)cc3)cc2C1=O [Example 523, 2-Methyl-2-(1-oxo-6-(4-(4-(trifluoromethoxy)benzamido)phenyl)isoindolin-2-yl)propanoic acid]	10 to 50	–
O=C(Nc1ccc(-c2ccc3c(c2)C(=O)N([C@H]2CC[C@H](C(=O)O)CC2)C3)cc1)c1ccc(C(F)(F)F)cc1 [Example 563, (1r,4r)-4-(1-Oxo-6-(4-(4-(trifluoromethyl)benzamido)phenyl)isoindolin-2-yl)cyclohexanecarboxylic acid]	–	+ (10-50% Inhibition)
CCCCOc1ccc(C(=O)Nc2ccc(-c3ccc4c(c3)C(=O)N([C@H](C(=O)O)C(C)C)C4)c(Cl)c2)cc1 [Example 484, (S)-2-(6-(4-(4-Butoxybenzamido)-2-chlorophenyl)-1-oxoisoindolin-2-yl)-3-methylbutanoic acid]	> 50	–
CC(C)[C@@H](C(=O)O)N1Cc2ccc(-c3ccc(NC(=O)c4ccc(-c5ccccc5)cc4)cc3F)cc2C1=O [Example 602, (S)-2-(6-(4-([1,1′-Biphenyl]-4-ylcarboxamido)-2-fluorophenyl)-1-oxoisoindolin-2-yl)-3-methylbutanoic acid]	–	++ (>50% Inhibition)
CC(C)C[C@@H](C(=O)O)N1Cc2cc(-c3ccc(NC(=O)Nc4cccc(C(F)(F)F)c4)cc3)ccc2C1=O [Example 388, (S)-4-Methyl-2-(1-oxo-5-(4-(3-(3-(trifluoromethyl)phenyl)ureido)phenyl)isoindolin-2-yl)pentanoic acid]	10 to 50	–
CC(C)[C@@H](C(=O)O)N1Cc2ccc(-c3ccc(NC(=O)c4ccc(C(C)(C)C)cc4)nc3)cc2C1=O [Example 492, (S)-2-(6-(6-(4-tert-Butylbenzamido)pyridin-3-yl)-1-oxoisoindolin-2-yl)-3-methylbutanoic acid]	> 50	–
CC(C)[C@@H](C(=O)O)N1Cc2ccc(-c3ccc(NC(=O)c4ccc(C(C)(C)C)cc4)cn3)cc2C1=O [Example 404, (S)-2-(6-(5-(4-tert-Butylbenzamido)pyridin-2-yl)-1-oxoisoindolin-2-yl)-3-methyl butanoic acid]	> 50	–
O=C(O)CCN1Cc2cc(-c3ccc(NC(=O)Nc4cccc(C(F)(F)F)c4)cc3)ccc2C1=O [Example 379, 3-(1-Oxo-5-(4-(3-(3-(trifluoromethyl)phenyl)ureido)phenyl)isoindolin-2-yl)propanoic acid]	10 to 50	–

Further lines, with some results ahead:

inhibition at 1 µM [%]	SMILES	% Inhibition of hDGAT1
10 to 50	CC(C)[C@@H](C(=O)O)N1Cc2ccc(-c3ccc(NC(=S)Nc4ccccc4F)cc3)cc2C1=O [Example 52, (S)-2-(6-(4-(3-(2-Fluorophenyl)thioureido)phenyl)-1-oxoisoindolin-2-yl)-3-methylbutanoic acid]	–
> 50	Cc1ccc(NC(=O)Nc2ccc(-c3ccc4c(c3)C(=O)N([C@H](C(=O)O)C(C)C)C4)cc2F)cc1C [Example 436, (S)-2-(6-(4-(3-(3,4-Dimethylphenyl)ureido)-3-fluorophenyl)-1-oxoisoindolin-2-yl)-3-methylbutanoic acid]	–
10 to 50	Cc1ccc(NC(=S)Nc2ccc(-c3ccc4c(c3)C(=O)N([C@H](C(=O)O)C(C)C)C4)cc2)cc1 [Example 54, (S)-3-Methyl-2-(1-oxo-6-(4-(3-p-tolylthioureido)phenyl)isoindolin-2-yl)butanoic acid]	–
> 50	CC(C)[C@@H](C(=O)O)N1Cc2ccc(-c3ccc(NC(=O)c4ccc(C(C)(C)C)cc4)c(F)c3)cc2C1=O [Example 444, (S)-2-(6-(4-(4-tert-Butylbenzamido)-3-fluorophenyl)-1-oxoisoindolin-2-yl)-3-methylbutanoic acid]	–
10 to 50	CC(C)[C@@H](C(=O)O)N1Cc2cc(-c3ccc(NC(=O)c4cccc(F)c4)cc3)ccc2C1=O [Example 313, (S)-2-(5-(4-(3-Fluorobenzamido)phenyl)-1-oxoisoindolin-2-yl)-3-methylbutanoic acid]	–
10 to 50	CC(C)[C@@H](C(=O)O)N1Cc2ccc(-c3ccc(NC(=O)c4ccccc4C(F)(F)F)cc3)cc2C1=O [Example 200, (S)-3-Methyl-2-(1-oxo-6-(4-(2-(trifluoromethyl)benzamido)phenyl)isoindolin-2-yl)butanoic acid]	–
10 to 50	CC(C)[C@@H](C(=O)O)N1Cc2ccc(-c3ccc(NC(=O)Nc4cc(F)cc(F)c4)cc3)cc2C1=O [Example 30, (S)-2-(6-(4-(3-(3,5-Difluorophenyl)ureido)phenyl)-1-oxoisoindolin-2-yl)-3-methylbutanoic acid]	–
> 50	Cc1oc(-c2ccccc2)nc1C(=O)Nc1ccc(-c2ccc3c(c2)C(=O)N([C@H](C(=O)O)C(C)C)C3)cc1 [Example 643, (S)-3-Methyl-2-(6-(4-(5-methyl-2-phenyloxazole-4-carboxamido)phenyl)-1-oxoisoindolin-2-yl)butanoic acid]	–
> 50	CC(C)[C@@H](C(=O)O)N1Cc2ccc(-c3ccc(NC(=O)c4ncc(-c5ccccc5)s4)cn3)cc2C1=O [Example 637, (S)-3-Methyl-2-(1-oxo-6-(5-(5-phenylthiazole-2-carboxamido)pyridin-2-yl)isoindolin-2-yl)butanoic acid]	–
> 50	CC(C)[C@@H](C(=O)O)N1Cc2ccc(-c3ccc(NC(=O)Nc4ccccc4Cl)c(F)c3)cc2C1=O [Example 442, (S)-2-(6-(4-(3-(2-Chlorophenyl)ureido)-3-fluorophenyl)-1-oxoisoindolin-2-yl)-3-methylbutanoic acid]	–
10 to 50	CC(C)[C@@H](C(=O)O)N1Cc2ccc(-c3ccc(NC(=O)c4c(F)cccc4C(F)(F)F)cc3)cc2C1=O [Example 126, (S)-2-(6-(4-(2-Fluoro-6-(trifluoromethyl)benzamido)phenyl)-1-oxoisoindolin-2-yl)-3-methylbutanoic acid]	–
> 50	CC(C)[C@@H](C(=O)O)N1Cc2ccc(-c3ccc(NC(=O)Nc4cccc(C#N)c4)cc3)cc2C1=O [Example 42, (S)-2-(6-(4-(3-(3-Cyanophenyl)ureido)phenyl)-1-oxoisoindolin-2-yl)-3-methyl butanoic acid]	–
